According to ChEMBL document CHEMBL3507680, “University of Dundee, Gates Library screen for HepG2 cell viability”:

Test: Human HepG2 cell viability assay in 384 well format
Format: toxicity, cell-based
Set-up: dose 125 nL, time 70.5 hour; cytotoxicity at 70.5 h: concentration not given beside the values
Settings: HepG2 cells, read-out: Inhibition

Structure (SMILES)	cytotoxicity at 70.5 h
COC(C(=O)NC1CC1)c1ccccc1 (stereo not drawn)	28.7%
c1coc(CN2CC[C@@H]3O[C@@H](COCc4ccncc4)CC[C@@H]32)c1	3.57%
Cc1cnc(C(=O)N2C[C@H]3CN(Cc4cccs4)C[C@H]3C2)cn1	8.68%
COc1ncnc2c1CCN(Cc1cccc(C)n1)CC2	5.99%
Cc1nc(CN2C(=O)C[C@@H]3[C@@H]2CCN3S(C)(=O)=O)cs1	-4.41%
COc1nn(C)c2c1CCCN(C(=O)c1ccc(C)c(F)c1)C2	-101%
O=C1[C@H]2CN(c3ncccn3)C[C@H]2CN1CC1CC1	-124%
COc1nn(C)c2c1CCCN(C(=O)COc1ccccc1)C2	-104%
Cn1cc(C(=O)NCc2cn3c(n2)CN(Cc2ccncc2)CC3)cn1	-7.44%
COc1nn(C)c2c1CCCN(C(=O)c1cccn1C)C2	-41.9%
COc1nn(C)c2c1CCCN(C(=O)c1ccc[nH]1)C2	-99.5%
CCCS(=O)(=O)N1CCC2(CC1)CC(Nc1ncccn1)CO2 (stereo not drawn)	-99.6%
CCC1=N[C@@]2(CC[C@@H]3CN(C(=O)Nc4ccccc4)C[C@@H]32)C(=O)N1C	-85.8%
COCCC(=O)N1CCC2(CCN(Cc3ccc(OC)c(F)c3)C2)C1 (stereo not drawn)	-93.9%
COCC1c2c(cnn2C)CCN1Cc1ccc(C)o1 (stereo not drawn)	-18.3%
C[C@H]1C[C@@H]2CCN(C(=O)c3ccncc3)C[C@H]2O1	-2.95%
CC(=O)N1CCN(C(=O)NC(C)C)CC2(CC(=O)N(C)C2)C1 (stereo not drawn)	-13.5%
Cn1nc(C(=O)NCc2cccnc2)c2c1CCS(=O)(=O)C2	24.8%
Cn1nc(C(=O)NCc2ccc(F)cc2)c2c1CCS(=O)(=O)C2	-6.3%
CCC1=NC(SCC(=O)c2ccccc2)c2cc(CC)sc2N1 (stereo not drawn)	13.5%
Cc1c(S(=O)(=O)NC2CC2)cc2c(C)cc(=O)n3c2c1CCC3	0.953%
Cc1nnc(SCC(=O)NCc2ccc3c(c2)CCC(=O)N3)s1	2.74%
Cn1c(=O)oc2cc(S(=O)(=O)N3CCCCC3)c(Cl)cc21	47.9%

Structure (SMILES)	cytotoxicity at 70.5 h
Cn1c(=O)oc2ccc(S(=O)(=O)N3CCC(c4ccccc4)C3)cc21 (stereo not drawn)	28.3%
O=C(NCc1ccccc1Cl)c1[nH]nc2c1CS(=O)(=O)CC2	-5.21%
CCn1ncc(Nc2[nH]cnc3nncc2-3)c1C	-3.49%
Cc1nc2[nH]cnc(NCCN3CCOCC3)c-2n1	-1.72%
COc1ccc(OC)c(C(C)Nc2ncnc3c2NC(=O)CN3)c1 (stereo not drawn)	-18.2%
Cc1noc(C2CCN(C(=O)C3CCCO3)CC2)n1 (stereo not drawn)	-9.25%
CCC(C)c1noc(C2CCN(C(=O)Cn3nc(C)cc3C)CC2)n1 (stereo not drawn)	-5.55%
CCC(C)c1noc(C2CCN(C(=O)c3ccccn3)CC2)n1 (stereo not drawn)	-3.62%
CC(C)Cc1noc(C2CCCN(C(=O)CCc3cnn(C)c3)C2)n1 (stereo not drawn)	-8.4%
CNc1ncc2c(n1)CN(CCc1ccc(F)cc1)C2=O	-10.4%
CNc1ncc2c(n1)CN(C1CC(C)(C)NC(C)(C)C1)C2=O	-12.6%
CC(c1ccc2c(c1)OCO2)N1Cc2nc(N(C)C)ncc2C1=O (stereo not drawn)	-0.989%
CCn1cc(N2Cc3nc(N(C)C)ncc3C2=O)cn1	-4.06%
Cc1noc(C2CCN(C(=O)c3cccs3)CC2)n1	-9.06%
Cc1cc(C)n(CC(=O)N2CCC(c3nc(C(C)C)no3)CC2)n1	-7.07%
CC(C)Cc1noc(C2CCCCN2C(=O)CCc2cnn(C)c2)n1 (stereo not drawn)	-7.69%
Cc1nn(C)c(C)c1CN(C)CC1(O)CCCN(C)C1 (stereo not drawn)	-19.1%
Cc1cc(C)n(CCC(=O)N2CCCC(c3nc(C(C)C)no3)C2)n1 (stereo not drawn)	-4.86%
CCc1noc(C2CCCCN2C(=O)c2ccc(C)o2)n1 (stereo not drawn)	14%
COc1ccc(N2Cc3nc(N)ncc3C2=O)cc1	9.83%
CCc1noc(C2CCCCN2C(=O)c2cc(C)n(C)n2)n1 (stereo not drawn)	16.6%
Cc1cc(C(=O)N2CCCC(c3nc(C)no3)C2)on1 (stereo not drawn)	-10.6%
Cc1nn(C)c2cn(C(C)C(=O)NCc3ccncc3)nc12 (stereo not drawn)	-2.93%

Structure (SMILES)	cytotoxicity at 70.5 h
Cc1cc(C)n(CCCNc2ncnc3c2NC(=O)CN3)n1	-8.3%
CCN1CCCC(O)(CN(C)Cc2ccc(C)o2)C1 (stereo not drawn)	-10.6%
CCn1nc(C)c2c1cnn2CC(=O)NC(C)c1cccc(OC)c1 (stereo not drawn)	-15.4%
CCn1nc(C)c2c1cnn2CC(=O)N1CCN(C)CC1	-1.92%
CCc1cc(OC)c(OC)cc1C(=O)Nc1cccnc1	13%
Cc1cccc2c1ccn2CCC(=O)O	3.02%
Cc1ccc(CNc2cc3[nH]c(O)nc3cc2C)cc1	-19.5%
CCc1noc(C2CCCCN2C(=O)c2cccnc2)n1 (stereo not drawn)	-6.76%
Cc1nn(C(C)C)c2cnn(CC(=O)N3CCN(C)CC3)c12	-8.52%
Cc1nn(C(C)C)c2cnn(CC(=O)N3CCSCC3)c12	-1.45%
CCn1nccc1CN(C)C(=O)Cn1cc2c(n1)c(C)nn2CC	-1.76%
Cc1nc2[nH]cnc(Nc3cc(C)n(C)n3)c-2n1	-1.58%
CCN1CCCC(O)(CNCc2ccccn2)C1 (stereo not drawn)	-8.08%
CCN1CCCC(O)(CNCc2ccncc2)C1 (stereo not drawn)	14.1%
CN1CCN(c2nsc(-c3cccnc3)c2C#N)CC1	-4.14%
CC(C)n1cc(N2Cc3nc(N4CCOCC4)ncc3C2=O)cn1	15.4%
Cn1nc(C(=O)N2CCSCC2)cc1NC(=O)c1ccccc1	-1.31%
CCn1nc(C)c(CNC(=O)c2nnc3ccc(Cl)cc3n2)c1C	0.121%
O=C(NCC1CC1)c1nnc2ccc(Cl)cc2n1	-13.3%
O=C1c2cnc(N3CCOCC3)nc2CN1C1CCS(=O)(=O)C1 (stereo not drawn)	5.93%
CC1CCN(c2ncc3c(n2)CN(c2ccc(F)cc2)C3=O)CC1	-2.02%
O=C1c2cnc(N3CCCC3)nc2CN1C1CCS(=O)(=O)C1 (stereo not drawn)	-2.78%
CC(C)CN1Cc2nc(N3CCCC3)ncc2C1=O	19.8%

Structure (SMILES)	cytotoxicity at 70.5 h
CN1CCN(C(=O)c2cc(NC(=O)c3ccccc3)n(C)n2)CC1	-12.7%
CCn1nc(C)c(NC(=O)c2cc(NC(=O)C(C)C)n(C)n2)c1C	-5.54%
CC(C)C(=O)Nc1cc(C(=O)NC2CC(C)(C)NC(C)(C)C2)nn1C	14.5%
CCn1nccc1CN(C)c1nc(N)nc2c1nc(C)n2C	-3.81%
Cc1nn(C)c2cn(C(C)C(=O)NCc3ccc(F)cc3)nc12 (stereo not drawn)	-3.15%
Cn1nc(C(=O)N2CCSCC2)cc1NC(=O)c1ccco1	-5.7%
Cc1ccc2c(cnn2CCC(=O)NCc2csc(C)n2)c1	-14.7%
CC(=O)N[C@@H]1C[C@H](c2ccc(OCCO)cc2)OC2(CCOCC2)C1	7.41%
Cc1cc(O)nc(C2CN(CCC(F)(F)F)CCO2)n1 (stereo not drawn)	-7.38%
Cc1cccnc1C(=O)N1CCCC(Cc2cncc3ccccc23)C1 (stereo not drawn)	-3.08%
Cn1cncc1CN1CCCC1c1cncc(Oc2ccc(F)cc2)n1 (stereo not drawn)	-10.5%
Cc1noc(C)c1-c1ccnc(C2CCN(C3CCOCC3)CC2)c1	0.77%
Cc1cccc(CN2CCc3ncnc(C4CC4)c3CC2)n1	5.72%
Cc1nc(CN2C(=O)CC[C@@H]3[C@H]2CCN3C2CCOC2)cs1 (stereo partly drawn)	1.29%
COc1ccc(CN2CCc3ncnc(C4CC4)c3CC2)cc1	1.6%
Cn1ccc(C(=O)NC2CCC23CCN(CC2CCOCC2)CC3)c1 (stereo not drawn)	3.91%
CO[C@@H]1CO[C@@]2(CCCN(Cc3nc(C)cs3)C2)C1	-1.7%
O=c1ccc2c(n1CC1CCOCC1)CCN(Cc1ccoc1)CC2	49.3%
c1cnc(NC2COC3(CCN(Cc4cc[nH]n4)CC3)C2)nc1 (stereo not drawn)	-99.2%
COCCN1CCn2cc(CNC(=O)c3cnn(C)c3)nc2C1	-38%
COCCC(=O)N1CCCC2(CCCN2Cc2ccccc2F)C1 (stereo not drawn)	-107%
Cc1nc(COC[C@@H]2CC[C@H]3[C@H](CCN3c3ccccn3)O2)cs1	-90.1%
c1cnc(NC2COC3(CCN(Cc4cccs4)CC3)C2)nc1 (stereo not drawn)	-97%

Structure (SMILES)	cytotoxicity at 70.5 h
CCCS(=O)(=O)N1CCC2(CN(c3ccccc3)C(=O)CN2C)C1 (stereo not drawn)	-87.7%
O=C1[C@H]2CN(c3ncccn3)C[C@H]2CN1CCN1CCCC1	-47.2%
O=C(NCCCO)c1cc(-c2cc[nH]n2)n2ccccc12	-102%
CN(C)C(=O)COC[C@@H]1CC[C@H]2[C@H](CCN2c2ncccn2)O1	-66.5%
c1ccc(CN2CCc3c(CNc4nccs4)n[nH]c3C2)nc1	-16.9%
Cc1oncc1C(=O)N1C[C@H](OCc2ccccn2)[C@H]2OCCC[C@H]21	-11.5%
CN(C)C(=O)CC1CC2(CCN(Cc3ccoc3)CC2)c2ccccc21 (stereo not drawn)	-2.19%
COCC(=O)N1C[C@@H](OCc2ccncc2)[C@@H]2OCCC[C@@H]21	52.2%
CC(C)C(=O)N1CCN(Cc2cnn(C)c2)CC2(CC(=O)N(C)C2)C1 (stereo not drawn)	-13.2%
CCOCC1CN(Cc2nccs2)Cc2nn(CC3CC3)cc21 (stereo not drawn)	-9.99%
Cc1noc(C)c1CN1CCc2c(CNc3nccs3)n[nH]c2C1	-12.5%
O=C1COC2(CCN(S(=O)(=O)C3CC3)CC2)CN1c1cccnc1	40.1%
O=c1ccc2c(n1Cc1ccncc1)CCN(Cc1ccoc1)CC2	1.47%
CCN1CCn2cc(CNC(=O)c3cnn(C)c3)nc2C1	-110%
c1cncc(OC[C@]23COC[C@H]2CN(Cc2ccsc2)C3)c1	-129%
c1cncc(OC[C@]23COC[C@H]2CN(Cc2nccs2)C3)c1	-120%
Cn1cc(C(=O)NCc2cn3c(n2)CN(CC2CCCC2)CC3)cn1	-112%
CCN1CCC2(CC1)CC(NCc1cccs1)c1ccccc1O2 (stereo not drawn)	-5.71%
c1nc(CN2CCC3(CC2)COCCN3CC2CC2)c[nH]1	-18.8%
Cn1ncc2c1C(COCC1CC1)N(Cc1ccoc1)CC2 (stereo not drawn)	-19.6%
Cc1ccc(CN(CCCN2CCOCC2)Cc2cnc(C)n2C)o1	12.4%
